Measurements reported in patent US12161650B2, “Pharmaceutical compositions comprising a ryanodine receptor modulator and uses thereof” (priority 2021, dated 2024).
Where “and” joins values, the source holds several entries; their conditions need not be identical. Equal entries are not always repeated. Where two headings read alike, the source gives them in different places.

Assay: Phase 1b study in RYR1-Related Myopathy patients, plasma pharmacokinetics
Format: in vivo, human (RYR1-Related Myopathy patients)
Description: A Phase 1b study is performed in RYR1-Related Myopathy (RYR1-RM) affected individuals. Compound I was administered in a gastro-resistant tablet according to Example 3 at daily doses. The formulation comprised 20 mg Compound I (based on the mass of 4-[(7-methoxy-2,3-dihydro-1,4-benzothiazepin-4(5H)yl)methyl]benzoic acid). The first three participants were dosed with 120 mg of Compound I (6×20 mg tablets) daily for approximately 28 days. The second group was dosed with 200 mg of Compound I (10×20 mg tablets daily for approximately 28 days. Bloods for PK assessments were at baseline (Day 0, 24h PK), at the study mid-point (day 14±2 days, trough PK), and at the final study visit (day 28, 24h PK). Pharmacokinetic analysis was performed on plasma samples. PK parameters are set forth below: [table]

[1] = human, plasma, po, 200 mg, 200 mg oral daily for 28 days, three subjects
[2] = human, plasma, po, 200 mg, single oral 200 mg, three subjects
[3] = single oral 120 mg, Day 1, three subjects, Max
[4] = single oral 120 mg, Day 1, three subjects, Median
[5] = single oral 120 mg, Day 1, three subjects, Min
[6] = single oral 120 mg, Day 1, three subjects, arithmetic mean
[7] = single oral 120 mg, Day 1, three subjects, geometric mean

AUC(0-t) (human, plasma, po, 120 mg, single oral 120 mg, Day 1, three subjects, geometric mean, read-out: AUC0-t): 171 µg·h/mL | Cmax (human, plasma, po, 120 mg, single oral 120 mg, Day 1, three subjects, geometric mean, read-out: Cmax): ~13100 ng/mL | Tmax (human, plasma, po, 120 mg, single oral 120 mg, Day 1, three subjects, geometric mean, read-out: Tmax): 3 h | half-life (human, plasma, po, 120 mg, single oral 120 mg, Day 1, three subjects, geometric mean, read-out: t½ (converted)): 14.1 h | AUC(0-inf) (human, plasma, po, 120 mg, single oral 120 mg, Day 1, read-out: AUC0-inf, individual values): 212 to 290 µg·h/mL | AUC(0-t) (human, plasma, po, 120 mg, single oral 120 mg, Day 1, read-out: AUC0-t, individual values): 150 to 190 µg·h/mL | Cmax (human, plasma, po, 120 mg, single oral 120 mg, Day 1, read-out: Cmax, individual values): 11100 to 16300 ng/mL | Tmax (human, plasma, po, 120 mg, single oral 120 mg, Day 1, read-out: TMax, all participants): 3 h | half-life (human, plasma, po, 120 mg, single oral 120 mg, Day 1, read-out: half-life, individual values (converted)): 12.8 h | concentration at 0 h [1]: 7450 ng/mL | concentration at 0.5 h [1]: 8190 ng/mL | concentration at 1 h [1]: 7900 ng/mL | concentration at 2 hr (human, plasma, po, 200 mg, 200 mg oral daily for 28 days, three subjects, time 2 hr): 8830 ng/mL | concentration at 3 h [1]: 13500 ng/mL | concentration at 4 h [1]: 15100 ng/mL | concentration at 5 h [1]: 17800 ng/mL | concentration at 6 h [1]: 20000 ng/mL | concentration at 8 h [1]: 18300 ng/mL | concentration at 12 h [1]: 15400 ng/mL | concentration at 24 h [1]: 8550 ng/mL | Tmax (human, plasma, po, 200 mg, 200 mg oral daily for 28 days, read-out: Tmax, all participants): 5 to 6 h | concentration at 0 h [2]: 0 ng/mL | concentration at 0.5 h [2]: 0 ng/mL | concentration at 1 h [2]: 0 ng/mL | concentration at 2 h (human, plasma, po, 200 mg, single oral 200 mg, three subjects, time 2 hr): 176 ng/mL | concentration at 3 h [2]: 1110 ng/mL | concentration at 4 h [2]: 14300 ng/mL | concentration at 5 h [2]: 17600 ng/mL | concentration at 6 h [2]: 15900 ng/mL | concentration at 8 h [2]: 13400 ng/mL | concentration at 12 h [2]: 10000 ng/mL | concentration at 24 h [2]: 5520 ng/mL | Tmax (human, plasma, po, 200 mg, single oral 200 mg, read-out: TMax, all participants): 5 to 6 h | half-life, individual values (single oral 120 mg, Day 1): 15.28 h and 14.40 h | AUC0-24 [3]: 190 µg·h/mL | AUC % extrap [3]: 36.4% | AUC(0-inf) [3]: 290 µg·h/mL | AUC(0-t) [3]: 190 µg·h/mL | Cmax [3]: 16300 ng/mL | Kel [3]: 0.0544 h⁻¹ | Tlag [3]: 0.50 h | t½ [3]: 15.28 h | AUC % extrap [4]: 34.33% | Kel [4]: 0.04813 h⁻¹ | Tlag [4]: 0.000 h | AUC0-24 [5]: 150 µg·h/mL | AUC % extrap [5]: 29.4% | AUC(0-inf) [5]: 212 µg·h/mL | AUC(0-t) [5]: 150 µg·h/mL | Cmax [5]: 11100 ng/mL | Kel [5]: 0.0454 h⁻¹ | Tlag [5]: 0.00 h | t½ [5]: 12.75 h | AUC % extrap [6]: 33.36% | Kel [6]: 0.04929 h⁻¹ | Tlag [6]: 0.167 h | t½ [6]: 14.142 h | AUC % extrap [7]: 33.23% | AUC(0-inf) [7]: 256.6 µg·h/mL | AUC(0-t) [7]: 170.8 µg·h/mL | Kel [7]: 0.04915 h⁻¹
Compound: COc1ccc2c(c1)CN(Cc1ccc(C(=O)O)cc1)CCS2.O=C(O)/C=C/C(=O)O [Compound I, 4-[(7-methoxy-2,3-dihydro-1,4-benzothiazepin-4(5H)yl)methyl]benzoic acid hemifumarate]
